Columns and labels:
[1] = tested on: bone sialoprotein II; assay: Western blot of bone sialoprotein II expression after exposure to ASOs; assay type: cell-based, human; settings: for bone sialoprotein II expression in relation to untreated control (100%): 10 μM
[2] = tested on: osteopontin; assay: Western blot of osteopontin expression after exposure to ASOs; assay type: cell-based, human; settings: for osteopontin expression in relation to untreated control (100%): MDA-MB231, lipofectamine, 10 μM; for reduction of osteopontin expression: MDA-MB-231

5′-GCT-TTC-TTC-GTT-TTC-ATT-TC-3′ [ASO-BSPII-6]
bone sialoprotein II expression in relation to untreated control (100%) ([1]; MDA-MB231, single exposure, electroporation): 16%
bone sialoprotein II expression in relation to untreated control (100%) ([1]; MDA-MB231, single exposure, lipofectamine): 33%
bone sialoprotein II expression in relation to untreated control (100%) ([1]; MDA-MB231, twofold exposure, lipofectamine): 15%
bone sialoprotein II expression in relation to untreated control (100%) ([1]; MDA-MB231^F (growing without FBS), single exposure, lipofectamine): 79%
bone sialoprotein II expression in relation to untreated control (100%) ([1]; MDA-MB435s, single exposure, lipofectamine): 0%
maximum inhibition of protein expression / suppression of protein level (BSP II) ([1]; MDA-MB-231 cells, Western blot): 75%
reduction of bone sialoprotein expression ([1]; single exposure): 84%
reduction of bone sialoprotein protein level ([1]; twofold exposure): 81%

5′-CTAACTTAAAAAACAAAAGA-3′ (antisense CTAACTTAAAAAACAAAAGA; all phosphorothioate, sugars by position and methylation of C not given here) [ASO-OPN-4]
osteopontin expression in relation to untreated control (100%) ([2]; single exposure): 16%
osteopontin expression in relation to untreated control (100%) ([2]; twofold exposure): 23%
reduction of osteopontin expression ([2]; repeated ASO exposure): 77%
reduction of osteopontin expression ([2]; single exposure): 84%
maximum inhibition of protein expression / suppression of protein level (OPN) ([2]; MDA-MB-231 cells, Western blot): 85%

Reference: US20090017103A1, “Antisense oligonucleotides for prevention of metastasis formation of cancer cells” (priority 2003, published 2009)
